Results as given in patent US8859549B2, “Potassium channel modulators” (AbbVie, Inc., priority 2011, dated 2014).

Target: T1, KCNQ 2/3 channels (Homo sapiens, UniProt O43525+O43526)
T1 construct: expressed in transfected cells; host or cells: HEK293
Test: KCNQ 2/3 channel activation, thallium flux FLIPR assay (BTC-AM dye)
Type: cell-based
Details: for Emax: HEK293, maximum response relative to the response of 10 μM retigabine (set at 100%), HEK293 KCNQ2/KCNQ3 cells, read-out: % MAX; for EC50: HEK293 cells stably expressing human KCNQ2 and KCNQ3 subunits, thallium-induced fluorescence, 4 min compound incubation
Procedure: The following example describes the assay that can be used to identify compounds that activate KCNQ 2/3 channels.
HEK293 cells stably expressing human KCNQ2 and KCNQ3 subunits were seeded in 96-well, black-walled, clear-bottomed, poly-D-lysine coated plates (BD Biosciences, Bedford, Mass.) at a density of 1×10^5 cells per well 24 hours before the assay. On the assay day, BTC-AM dye (Invitrogen, Carlsbad, Calif.) was loaded into the cells by replacing the cell culture medium with 55 μL/well of 3 μg/mL dye in DPBS. Dye loading was allowed to proceed for 2 hours at room temperature and then cells were washed twice with 50 μL/well of assay buffer (in mM: 10 HEPES pH 7.3, 5 glucose, 140 Na-gluconate, 2.5 K-gluconate, 3.6 Ca-gluconate, 2 MgSO4, 0.1 Ouabain) to remove unloaded dye. Cells were incubated in 50 μL of assay buffer before loading onto a FLIPR system (Molecular Devices, Sunnyvale, Calif.). Various concentrations of compounds to be assayed were added to the cells in 50 μL of assay buffer and incubated for 4 minutes. The fluorescence signal was initiated by adding 100 μL of assay buffer containing 6 mM TlNO3 and 10 mM K2SO4. Fluors were excited using the 488-nm line of an argon laser and emission was filtered using a 540±30 nm bandpass filter. Fluorescent signals were recorded for 3 minutes. Sums of the responses over basal responses were plotted versus concentrations of test compounds to obtain an EC50 value. The maximum response for each test compound was determined relative to the response produced by 10 μM retigabine. The maximum response of retigabine at 10 μM was set at 100%.

SMILES	Emax [%]	EC50 [nM]
O=C(Cc1cc(F)cc(F)c1)Nn1nc(N2CCOCC2)c2ccccc2c1=O [Example 1, 2-(3,5-difluorophenyl)-N-[4-(morpholin-4-yl)-1-oxophthalazin-2(1H)-yl]acetamide]	130	4460
O=C(Cc1ccc(Cl)cc1)Nn1nc(N2CCOCC2)c2ccccc2c1=O [Example 2, 2-(4-chlorophenyl)-N-[4-(morpholin-4-yl)-1-oxophthalazin-2(1H)-yl]acetamide]	117	2700
O=C(Cc1ccc(Cl)cc1)Nn1nc(-c2ccc(Cl)nc2)c2ccccc2c1=O [Example 5, 2-(4-chlorophenyl)-N-[4-(6-chloropyridin-3-yl)-1-oxophthalazin-2(1H)-yl]acetamide]	85.2	470
O=C(Cc1cc(F)cc(F)c1)Nn1nc(C2=CCOCC2)c2ccccc2c1=O [Example 7, 2-(3,5-difluorophenyl)-N-[4-(3,6-dihydro-2H-pyran-4-yl)-1-oxophthalazin-2(1H)-yl]acetamide]	140	3130
O=C(Cc1ccc(Cl)cc1)Nn1nc(-c2cccnc2)c2ccccc2c1=O [Example 9, 2-(4-chlorophenyl)-N-[1-oxo-4-(pyridin-3-yl)phthalazin-2(1H)-yl]acetamide]	19.6	–
O=C(Cc1ccc(Cl)cc1)Nn1nc(-c2cccs2)c2ccccc2c1=O [Example 11, 2-(4-chlorophenyl)-N-[1-oxo-4-(thiophen-2-yl)phthalazin-2(1H)-yl]acetamide]	105	297
Cc1ccsc1-c1nn(NC(=O)Cc2cc(F)cc(F)c2)c(=O)c2ccccc12 [Example 14, 2-(3,5-difluorophenyl)-N-[4-(3-methylthiophen-2-yl)-1-oxophthalazin-2(1H)-yl]acetamide]	146	296
Cc1ccsc1-c1nn(NC(=O)Cc2ccc(Cl)cc2)c(=O)c2ccccc12 [Example 15, 2-(4-chlorophenyl)-N-[4-(3-methylthiophen-2-yl)-1-oxophthalazin-2(1H)-yl]acetamide]	124	858
O=C(Cc1cc(F)cc(F)c1)Nn1nc(-c2ccccn2)c2ccccc2c1=O [Example 18, 2-(3,5-difluorophenyl)-N-[1-oxo-4-(pyridin-2-yl)phthalazin-2(1H)-yl]acetamide]	112	2810
CC(C)(CC(=O)Nn1nc(-c2ccc(Cl)nc2)c2ccccc2c1=O)c1ccccc1 [Example 27, N-[4-(6-chloropyridin-3-yl)-1-oxophthalazin-2(1H)-yl]-3-methyl-3-phenylbutanamide]	134	261
O=C(Cc1cc(F)cc(F)c1)Nn1nc(Cc2ccc(Cl)nc2)c2ccccc2c1=O [Example 31, N-{4-[(6-chloropyridin-3-yl)methyl]-1-oxophthalazin-2(1H)-yl}-2-(3,5-difluorophenyl)acetamide]	72.1	330
CC(C)(CC(=O)Nn1nc(N2CCOCC2)c2ccccc2c1=O)c1ccccc1 [Example 33, 3-methyl-N-[4-(morpholin-4-yl)-1-oxophthalazin-2(1H)-yl]-3-phenylbutanamide]	131	1590
NCc1nn(NC(=O)Cc2ccc(Cl)cc2)c(=O)c2ccccc12 [Example 42, N-[4-(aminomethyl)-1-oxophthalazin-2(1H)-yl]-2-(4-chlorophenyl)acetamide]	8.66	–
CC(C)(CC(=O)Nn1nc(-c2ccnc(Cl)c2)c2ccccc2c1=O)c1ccccc1 [Example 48, N-[4-(2-chloropyridin-4-yl)-1-oxophthalazin-2(1H)-yl]-3-methyl-3-phenylbutanamide]	133	389
O=C(Cc1ccc(Cl)cc1)Nn1nc(-c2ccnc(Cl)c2)c2ccccc2c1=O [Example 49, 2-(4-chlorophenyl)-N-[4-(2-chloropyridin-4-yl)-1-oxophthalazin-2(1H)-yl]acetamide]	107	383
CC1CN(c2nn(NC(=O)Cc3cc(F)cc(F)c3)c(=O)c3ccccc23)CC(C)O1 (stereo not shown) [Example 60, 2-(3,5-difluorophenyl)-N-[4-(2,6-dimethylmorpholin-4-yl)-1-oxophthalazin-2(1H)-yl]acetamide]	105	474
CC1CN(c2nn(NC(=O)CC(C)(C)c3ccccc3)c(=O)c3ccccc23)CC(C)O1 (stereo not shown) [Example 61, N-[4-(2,6-dimethylmorpholin-4-yl)-1-oxophthalazin-2(1H)-yl]-3-methyl-3-phenylbutanamide]	123	228

Now from value to molecule:

Emax [%]	EC50 [nM]	SMILES
145	14.6	N#Cc1ccc(S(=O)(=O)c2nn(NC(=O)C[C@H]3C[C@@H]4CC[C@H]3C4)c(=O)c3ccccc23)cc1 (racemic) [Example 219, (±)-2-[(exo)-bicyclo[2.2.1]hept-2-yl]-N-{4-[(4-cyanophenyl)sulfonyl]-1-oxophthalazin-2(1H)-yl}acetamide]
139	57.9	CCC1CN(c2nn(NC(=O)CC3CC4CCC3C4)c(=O)c3ccccc23)CCO1 (racemic) [Example 220, (±)-2-[(exo)-bicyclo[2.2.1]hept-2-yl]-N-[4-(2-ethylmorpholin-4-yl)-1-oxophthalazin-2(1H)-yl]acetamide]
137	161	O=C(Cc1cc(F)cc(F)c1)Nn1nc(-c2cccs2)c2ccccc2c1=O [Example 10, 2-(3,5-difluorophenyl)-N-[1-oxo-4-(thiophen-2-yl)phthalazin-2(1H)-yl]acetamide]
138	131	O=C(C[C@@H]1C[C@@H]2C=C[C@H]1C2)Nn1nc(-c2cccs2)c2ccccc2c1=O [Example 13, 2-[(1S,2S,4S)-bicyclo[2.2.1]hept-5-en-2-yl]-N-[1-oxo-4-(thiophen-2-yl)phthalazin-2(1H)-yl]acetamide]
139	209	Cc1ccsc1-c1nn(NC(=O)C[C@@H]2C[C@@H]3C=C[C@H]2C3)c(=O)c2ccccc12 [Example 17, 2-[(1S,2S,4S)-bicyclo[2.2.1]hept-5-en-2-yl]-N-[4-(3-methylthiophen-2-yl)-1-oxophthalazin-2(1H)-yl]acetamide]
145	214	O=C(Cc1cc(F)cc(F)c1)Nn1nc(N2CCCC2)c2ccccc2c1=O [Example 20, 2-(3,5-difluorophenyl)-N-[1-oxo-4-(pyrrolidin-1-yl)phthalazin-2(1H)-yl]acetamide]
136	198	O=C(Cc1ccc(Cl)cc1)Nn1nc(N2CCCC2)c2ccccc2c1=O [Example 21, 2-(4-chlorophenyl)-N-[1-oxo-4-(pyrrolidin-1-yl)phthalazin-2(1H)-yl]acetamide]
134	87.5	O=C(Cc1cc(F)cc(F)c1)Nn1nc(N2CCCCC2)c2ccccc2c1=O [Example 22, 2-(3,5-difluorophenyl)-N-[1-oxo-4-(piperidin-1-yl)phthalazin-2(1H)-yl]acetamide]
140	84.2	O=C(Cc1ccc(Cl)cc1)Nn1nc(N2CCCCC2)c2ccccc2c1=O [Example 24, 2-(4-chlorophenyl)-N-[1-oxo-4-(piperidin-1-yl)phthalazin-2(1H)-yl]acetamide]
46.2	148	O=C(Cc1ccc(Cl)cc1)Nn1nc(Cc2ccc(Cl)nc2)c2ccccc2c1=O [Example 32, 2-(4-chlorophenyl)-N-{4-[(6-chloropyridin-3-yl)methyl]-1-oxophthalazin-2(1H)-yl}acetamide]
105	221	CN(Cc1ccccc1)c1nn(NC(=O)Cc2ccc(Cl)cc2)c(=O)c2ccccc12 [Example 36, N-{4-[benzyl(methyl)amino]-1-oxophthalazin-2(1H)-yl}-2-(4-chlorophenyl)acetamide]
122	31.8	O=C(Cc1cc(F)cc(F)c1)Nn1nc(Oc2ccccc2)c2ccccc2c1=O [Example 38, 2-(3,5-difluorophenyl)-N-(1-oxo-4-phenoxyphthalazin-2(1H)-yl)acetamide]
185	102	CN(Cc1ccccc1)c1nn(NC(=O)CC(C)(C)c2ccccc2)c(=O)c2ccccc12 [Example 52, N-{4-[benzyl(methyl)amino]-1-oxophthalazin-2(1H)-yl}-3-methyl-3-phenylbutanamide]
147	132	CN(Cc1ccccc1)c1nn(NC(=O)Cc2cc(F)cc(F)c2)c(=O)c2ccccc12 [Example 53, N-{4-[benzyl(methyl)amino]-1-oxophthalazin-2(1H)-yl}-2-(3,5-difluorophenyl)acetamide]
116	38.1	O=C(Cc1cc(F)cc(F)c1)Nn1nc(Sc2ccccc2)c2ccccc2c1=O [Example 57, 2-(3,5-difluorophenyl)-N-[1-oxo-4-(phenylsulfanyl)phthalazin-2(1H)-yl]acetamide]
120	82.6	O=C(Cc1ccc(Cl)cc1)Nn1nc(Sc2ccccc2)c2ccccc2c1=O [Example 58, 2-(4-chlorophenyl)-N-[1-oxo-4-(phenylsulfanyl)phthalazin-2(1H)-yl]acetamide]
